Laboratory results as given in patent publication US20070110833A1, “Composition comprising the alcohol compound isolated from the extract of cucurbitaceae family plant having anti-adipogenic and anti-obesity activity” (priority 2003, published 2007).

System: 3T3-L1 cell
Assay: Inhibition of adipocyte (3T3-L1) differentiation and triglyceride accumulation, Oil Red O staining
Assay type: cell-based
Method: Adipocyte cell (3T3-L1) purchased from ATCC (American Tissue Culture Collection, USA) was cultured in RPMI medium containing 10% FBS and MDI cocktail (isobutylmethylxanthine, dexamethasone, insulin) was added thereto for differentiating into mature adipocytes cell. After two days, the medium was replaced and treated with only insulin. Thereafter, the medium was replaced and equal concentration of insulin was treated again every other day. MDI ranging from 2.5 to 1000 ug/ml of the concentration was treated when the adipocytes differentiation was induced and equal concentration of the MDI was treated at every replacement of the medium.
After eight days lapsed, the accumulated fat within differentiated cell was stained with Oil Red O staining reagent and the absorbance was determined with optical density qualitatively. The inhibition percentage (%) was calculated by following Empirical formula 1. The Inhibition Percentage (%)=[O.D. of test group]/[O.D. value of Control group]×100 [Empirical Formula 1]

Structure (SMILES): C[S+]([O-])c1ccc(-c2nc(-c3ccncc3)c(-c3ccc(F)cc3)[nH]2)cc1 (centres unmarked) [SB203580]
- adipocyte differentiation and triglyceride accumulation (Experimental Example 1-3, cmc-9 and controls, FIG. 5): the triglyceride was not formed
- level of produced triglycerides in differentiated 3T3-L1 cells (Oil Red O) (MDI-induced differentiation, 8 days, extracts 1 mg/ml, SB203580 10 uM, FIGS. 1 and 2): the triglyceride was not produced
